One experiment relates to patients with BENTA. Nature of the experiment: Clinical trial of MALT1 inhibitors for BENTA (Example 2). The format is in vivo. Conditions: oral once daily, 25 mg/day up to 1000 mg/day. As for the experimental part: MALT1 inhibitors (e.g., Compounds 1.1, 1.26, 1.27, 1.30, 1.33, 2.1, and/or 2.4) are used to treat patients with BENTA. MALT1 inhibitors (e.g., Compounds 1.1, 1.26, 1.27, 1.30, 1.33, 2.1, and/or 2.4) are formulated in an oral dosage form and administered to patients once daily at a starting dose of 25 mg/day. Alternatively, the daily dose is escalated from 25 mg/day to 1000 mg/day.

Experiment [1] deals with T1, proteolytic function of MALT1 (cleavage of CYLD) (Homo sapiens, UniProt Q9UDY8).
T1 construct: endogenous in cells; host or cells: Jurkat cells bearing GOF E134G, C49Y or G123D CARD11
T1 sequence (Q9UDY8 1-824): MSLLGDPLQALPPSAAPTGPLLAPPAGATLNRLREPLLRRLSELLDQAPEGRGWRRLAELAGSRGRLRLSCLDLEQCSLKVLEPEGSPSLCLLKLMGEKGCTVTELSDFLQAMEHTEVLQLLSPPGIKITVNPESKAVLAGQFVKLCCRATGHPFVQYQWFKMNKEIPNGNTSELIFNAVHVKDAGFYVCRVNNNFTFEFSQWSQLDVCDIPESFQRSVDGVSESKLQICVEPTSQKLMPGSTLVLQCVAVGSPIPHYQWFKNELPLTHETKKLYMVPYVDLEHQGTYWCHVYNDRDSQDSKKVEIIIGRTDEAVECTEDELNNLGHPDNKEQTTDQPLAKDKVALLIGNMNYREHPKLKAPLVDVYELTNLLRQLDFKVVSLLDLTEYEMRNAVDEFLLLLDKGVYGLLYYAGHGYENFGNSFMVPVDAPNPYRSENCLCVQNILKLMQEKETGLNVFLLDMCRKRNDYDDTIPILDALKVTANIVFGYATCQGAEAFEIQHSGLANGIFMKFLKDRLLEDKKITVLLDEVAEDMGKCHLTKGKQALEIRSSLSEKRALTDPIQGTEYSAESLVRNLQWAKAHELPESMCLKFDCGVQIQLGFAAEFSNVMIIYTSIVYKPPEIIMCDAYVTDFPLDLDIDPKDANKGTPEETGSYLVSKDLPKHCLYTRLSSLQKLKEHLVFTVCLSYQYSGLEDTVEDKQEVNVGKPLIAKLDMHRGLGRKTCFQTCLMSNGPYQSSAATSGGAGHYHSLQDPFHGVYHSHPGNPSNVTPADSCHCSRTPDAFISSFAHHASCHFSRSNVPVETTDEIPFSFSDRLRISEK
Nature of the experiment: CYLD cleavage in Jurkat cells bearing GOF CARD11 (Example 6). The format is cell-based. Conditions: Jurkat cells with GOF E134G, C49Y or G123D CARD11; dose dependent in the range of about 100 nM to 10 μM. As for the experimental part:
Jurkat cells bearing GOF E134G, C49Y, or G123D CARD11 were also assessed for cleavage of CYLD as a measure of the proteolytic function of MALT1. In the absence of inhibitors, the Jurkat cells with the GOF CARD11 mutants cleaved CYLD.

Experiment [2] concerns Jurkat cells engineered with the E134G, C49Y, or G123D CARD11 gain of function (GOF) mutant; κB-GFP readout of NFκB signaling. Nature of the experiment: NF-κB-GFP reporter in Jurkat cells engineered with CARD11 gain of function mutants (Example 6). The format is cell-based. Conditions: C49Y or G123D CARD11, all three mutants, dose dependent from about 100 nM to 5 μM. As for the experimental part:
Jurkat cells were engineered with the E134G, C49Y, or G123D CARD11 gain of function (GOF) mutant. The Jurkat cells included a reporter gene (κB-GFP) that acts as a readout of NFκB signaling.
Jurkat cells bearing GOF E134G, C49Y, or G123D CARD11 had elevated baseline activation of NF-κB-GFP. MALT1 inhibitors (e.g., Compound 1.1 or 2.4) were incubated with the above engineered Jurkat cells.

The subject of experiment [3] is T cells that lack endogenous CARD11 and bear transfected CARD11 gain-of-function mutations; κB-GFP readout of NFκB signaling. Nature of the experiment: NF-κB-GFP reporter in T cells transfected with CARD11 gain-of-function cDNA (Example 1). The format is cell-based. Conditions: T cells with CARD11 GOF variants; baseline and after anti-CD3 or PMA/ionomycin; flow cytometry. The method, then: MALT1 inhibitors (e.g., Compounds 1.1, 1.26, 1.27, 1.30, 1.33, 2.1, and/or 2.4) are incubated with T cells that lack endogenous CARD11 and bear transiently transfected CARD11 cDNA bearing gain-of-function mutations. An optional variation is co-transfecting 50:50 a copy of the wildtype CARD11 gene with the CARD11 gain of function mutant. The T-cells include a reporter gene (κB-GFP) that acts as a readout of NFκB signaling. The expression of NF-κB-GFP at baseline and after anti-CD3, or PMA/ionomycin stimulation is measured.
T-Cells bearing GOF variants of CARD11 have elevated baseline activation of NF-κB-GFP, and higher still after stimulation, which is assessed by flow cytometry.

The target in the next experiment is T2, full-length human MALT1 (Homo sapiens, UniProt Q9UDY8).
T2 construct: Recombinant full-length human MALT1 protein was expressed and purified; made in house
T2 sequence (Q9UDY8 1-824): T1 sequence (Q9UDY8 1-824)
Nature of the experiment: MALT1 cleavage of HOIL1 (Example 5). The format is biochemical. Particulars: HOIL1 0.05 μg/μL with MALT1, 2 h at 37° C.; gel electrophoresis/immunoblot. The method, then: Recombinant full-length human MALT1 protein was expressed and purified. C-terminal Myc-FLAG-tagged full-length human HOIL1 was obtained from Origene. HOIL1 protein (0.05 μg/μL) is incubated with different concentrations of MALT1 in assay buffer (200 mM Tris-HCl, 0.8 M Na citrate, 0.1 mM EGTA, 0.05% CHAPS, 1 mM DTT, pH 7.4) for 2 h at 37° C. Cleavage of HOIL1 was analyzed by gel electrophoresis using a 4-12% Bis-Tris SDS-polyacrylamide (PAGE) gradient gel (Life Technologies). The presence of a small fragment was confirmed by immunoblotting with an N-terminal antibody (anti-N-terminal HOIL1; HPA024185; Sigma). Total HOIL1 was observed using a C-terminal directed antibody (anti-FLAG, clone M2, Sigma). These assays are performed with both the cleavable HOIL1 and, as a negative control, a non-cleavable HOIL1 (where Lys is substituted for Arg165).
On the technique in general: A western blot detects proteins with antibodies after separation by electrophoresis.

For experiment [4], the system named is mTor pathway (e.g., mTORc1 and/or mTORc2) in primary T cells. Nature of the experiment: mTor pathway activation in stimulated primary T cells, pAkt/pS6 staining (Example 3). Conditions: primary T cells after anti-CD3/anti-CD28 activation. The format is cell-based. As for the experimental part: Primary T cells are stimulated to activation and cultured in the presence of IL-2. For stimulation, cells are preincubated with anti-CD3F and anti-CD28 on ice and washed. Cells were stimulated by crosslinking the anti-CD3 antibody with a secondary antibody (e.g., anti-mouse IgG for 10 min) in complete T cell media and then fixed with pre-warmed fixation buffer. Cells are then washed with FACS buffer and permeabilized with permeabilization buffer pre-chilled to −20° C. and incubated for 30 min on ice. Cells are washed and then stained with the following antibodies or appropriate isotype controls anti-pAkt (Ser473) and anti-pS6 (Ser240/244).
MALT1 inhibitors (e.g., Compounds 1.1, 1.26, 1.27, 1.30, 1.33, 2.1, and/or 2.4) are incubated with the primary T cells after activation.

Experiment [5] has as its system epithelial cells (e.g., HEK293 cells) bearing CARD14 gain-of-function mutations; κB-GFP readout of NFκB signaling. Nature of the experiment: NF-κB-GFP reporter in epithelial cells transfected with CARD14 gain-of-function cDNA (Example 4). Particulars: epithelial cells with CARD14 GOF variants; flow cytometry. It is filed as cell-based. The method, then:
MALT1 inhibitors (e.g., Compounds 1.1, 1.26, 1.27, 1.30, 1.33, 2.1, and/or 2.4) are incubated with epithelial cells (e.g., HEK293 cells) that lack endogenous CARD14 and bear transiently transfected CARD14 cDNA bearing gain-of-function mutations. The epithelial cells include a reporter gene (κB-GFP) that acts as a readout of NFκB signaling. The expression of NF-κB-GFP at baseline and after anti-CD3, or PMA/ionomycin stimulation is measured.
Epithelial cells bearing gain of function variants of CARD14 have elevated baseline activation of NF-κB-GFP, and higher still after stimulation, which is assessed by flow cytometry.
(In flow cytometry, cells or beads pass a laser one at a time.)

For `CO[C@@H](C)c1c(Nc2ccc([C@H](N(C)C(=O)C3CCS(=O)(=O)CC3)C(F)(F)F)cc2)cnc2nc(Cl)nn12` [Compound 1.1, N-[(1S)-1-[4-({2-chloro-7-[(1S)-1-methoxyethyl]-[1,2,4]triazolo[1,5-a]pyrimidin-6-yl}amino)phenyl]-2,2,2-trifluoroethyl]-N-methyl-1,1-dioxo-1λ^6-thiane-4-carboxamide], the BENTA symptoms result with patients with BENTA is recorded as “amelioration of their BENTA symptoms”. In addition, the “Jun/Fos, NF-κB and/or mTor pathway activation in patients” value in the experiment with patients with BENTA is “reduced Jun/Fos, and/or NF-κB and/or a mTor pathway (e.g., mTORc1 and/or mTORc2) activation”. Also, in experiment [1], the CYLD cleavage entry is “suppress this CYLD cleavage in a dose dependent manner”. Also, the NF-κB-GFP expression result is “reduced NF-κB-GFP expression in a dose dependent fashion” in experiment [2], “lowered NF-κB-GFP expression” in experiment [3] and “lowered NF-κB-GFP expression” in experiment [5]. The “cleavage of HOIL1” value at full-length human MALT1 is on record as “cleavage of HOIL1 is reduced”. The “mTor pathway (mTORc1 and/or mTORc2) activation” value in experiment [4] is recorded as “suppress mTor pathway (e.g., mTORc1 and/or mTORc2) activation”.

As for `CN(C(=O)[C@H]1CC[C@H](C(=O)O)CC1)[C@@H](c1ccc(Nc2cnn(-c3ccccn3)c2C(F)(F)F)cc1)C(F)(F)F` [Compound 2.4], the BENTA symptoms result with patients with BENTA is given as “amelioration of their BENTA symptoms”. For the same compound, the “Jun/Fos, NF-κB and/or mTor pathway activation in patients” value in the experiment on patients with BENTA was “reduced Jun/Fos, and/or NF-κB and/or a mTor pathway (e.g., mTORc1 and/or mTORc2) activation”. Further, the CYLD cleavage result in experiment [1] is on record as “suppress this CYLD cleavage in a dose dependent manner”. The NF-κB-GFP expression result in experiment [2] was “reduced NF-κB-GFP expression in a dose dependent fashion”; in experiment [3] it was “lowered NF-κB-GFP expression”; in experiment [5], “lowered NF-κB-GFP expression”. In addition, at full-length human MALT1, the “cleavage of HOIL1” value is given as “cleavage of HOIL1 is reduced”. For the same compound, the “mTor pathway (mTORc1 and/or mTORc2) activation” value in experiment [4] is recorded as “suppress mTor pathway (e.g., mTORc1 and/or mTORc2) activation”.

The values above are taken from US20260240850A1, “Compositions and Methods for Treating MALT1 Associated Diseases” (Rarefied Biosciences, Inc., priority 2023, published 2026).
